Assay results taken from ChEMBL document CHEMBL5046253, “Synthesis and bioevaluation of diaryl urea derivatives as potential antitumor agents for the treatment of human colorectal cancer” (Eur J Med Chem, 2022).
Active and inactive are the calls of the source. The calls are words filed in the database; no cut-off is given here.

Tests used:
[1] = molecular target: Phosphatidylinositol 4,5-bisphosphate 3-kinase catalytic subunit alpha isoform (Homo sapiens, UniProt P42336); assay: Inhibition of PI3Kalpha (unknown origin) using PIP2 as substrate in presence of ATP incubated for 60 mins by ADP-glo based luminescence assay
Chain of Phosphatidylinositol 4,5-bisphosphate 3-kinase catalytic subunit alpha isoform (P42336 whole entry, canonical isoform): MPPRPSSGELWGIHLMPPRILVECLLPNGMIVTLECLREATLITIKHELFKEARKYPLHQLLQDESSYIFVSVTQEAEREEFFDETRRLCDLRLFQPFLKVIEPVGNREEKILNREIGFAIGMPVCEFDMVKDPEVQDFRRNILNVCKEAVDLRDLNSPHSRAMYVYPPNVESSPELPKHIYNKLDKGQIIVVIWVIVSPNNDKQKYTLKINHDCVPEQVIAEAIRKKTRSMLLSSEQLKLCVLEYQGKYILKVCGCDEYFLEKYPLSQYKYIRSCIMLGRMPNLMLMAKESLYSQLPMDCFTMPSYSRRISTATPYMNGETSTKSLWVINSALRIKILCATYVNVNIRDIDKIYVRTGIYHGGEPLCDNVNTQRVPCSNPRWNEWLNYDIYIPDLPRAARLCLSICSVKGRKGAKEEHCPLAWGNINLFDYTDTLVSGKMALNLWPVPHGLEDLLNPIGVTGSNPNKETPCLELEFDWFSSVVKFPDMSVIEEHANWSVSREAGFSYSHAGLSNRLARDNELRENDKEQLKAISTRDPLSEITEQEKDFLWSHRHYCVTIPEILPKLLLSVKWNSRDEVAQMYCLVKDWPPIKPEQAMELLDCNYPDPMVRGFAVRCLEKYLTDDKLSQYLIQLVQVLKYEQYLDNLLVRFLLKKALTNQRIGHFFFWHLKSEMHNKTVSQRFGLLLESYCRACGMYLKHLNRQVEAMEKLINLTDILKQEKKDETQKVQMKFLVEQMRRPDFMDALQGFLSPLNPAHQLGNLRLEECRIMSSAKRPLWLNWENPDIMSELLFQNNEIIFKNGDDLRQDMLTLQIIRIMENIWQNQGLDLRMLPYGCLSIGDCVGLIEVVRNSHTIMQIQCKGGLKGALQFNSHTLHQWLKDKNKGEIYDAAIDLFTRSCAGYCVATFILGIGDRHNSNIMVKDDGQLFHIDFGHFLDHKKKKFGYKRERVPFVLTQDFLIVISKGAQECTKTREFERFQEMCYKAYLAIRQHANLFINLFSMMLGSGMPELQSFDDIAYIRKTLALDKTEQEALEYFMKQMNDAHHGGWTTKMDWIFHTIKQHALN

[2] = molecular target: Serine/threonine-protein kinase mTOR (Homo sapiens, UniProt P42345); assay: Inhibition of mTOR (unknown origin) using U-Light-4E-BP1 peptide as a substrate in presence of ATP incubated for 45 mins by Lance ultra assay
[3] = molecular target: Phosphatidylinositol 4,5-bisphosphate 3-kinase catalytic subunit beta isoform (Homo sapiens, UniProt P42338); assay: Inhibition of PI3Kbeta (unknown origin) using PIP2 as substrate in presence of ATP incubated for 60 mins by ADP-glo based luminescence assay
Chain of Phosphatidylinositol 4,5-bisphosphate 3-kinase catalytic subunit beta isoform (P42338 whole entry, canonical isoform): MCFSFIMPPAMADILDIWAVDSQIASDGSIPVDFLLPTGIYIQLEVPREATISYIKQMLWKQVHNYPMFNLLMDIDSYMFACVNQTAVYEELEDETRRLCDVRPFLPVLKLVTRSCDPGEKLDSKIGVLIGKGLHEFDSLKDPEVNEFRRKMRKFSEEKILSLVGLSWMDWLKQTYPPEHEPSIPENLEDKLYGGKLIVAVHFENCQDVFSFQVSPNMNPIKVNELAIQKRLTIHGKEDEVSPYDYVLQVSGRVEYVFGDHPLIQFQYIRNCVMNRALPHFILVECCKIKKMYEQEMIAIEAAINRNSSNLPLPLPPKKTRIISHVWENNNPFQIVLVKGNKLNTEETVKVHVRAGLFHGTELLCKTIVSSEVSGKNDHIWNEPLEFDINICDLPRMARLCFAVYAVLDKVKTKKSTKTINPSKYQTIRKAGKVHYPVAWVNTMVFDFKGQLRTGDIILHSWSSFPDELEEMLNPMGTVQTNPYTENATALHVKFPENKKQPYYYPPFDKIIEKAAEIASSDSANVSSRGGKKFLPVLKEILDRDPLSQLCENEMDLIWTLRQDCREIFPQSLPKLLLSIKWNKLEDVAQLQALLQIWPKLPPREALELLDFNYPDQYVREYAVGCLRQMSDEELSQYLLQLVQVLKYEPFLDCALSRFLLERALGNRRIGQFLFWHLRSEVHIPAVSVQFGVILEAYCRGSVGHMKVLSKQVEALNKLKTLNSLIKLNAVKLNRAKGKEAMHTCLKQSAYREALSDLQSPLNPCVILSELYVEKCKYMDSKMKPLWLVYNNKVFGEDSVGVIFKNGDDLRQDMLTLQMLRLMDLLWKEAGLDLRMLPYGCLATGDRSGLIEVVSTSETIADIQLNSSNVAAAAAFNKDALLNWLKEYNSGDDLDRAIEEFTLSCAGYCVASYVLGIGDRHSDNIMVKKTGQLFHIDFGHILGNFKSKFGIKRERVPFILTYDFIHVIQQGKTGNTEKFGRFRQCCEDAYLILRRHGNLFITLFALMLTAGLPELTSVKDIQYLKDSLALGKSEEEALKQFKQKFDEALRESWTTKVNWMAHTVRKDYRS

[4] = molecular target: Phosphatidylinositol 4,5-bisphosphate 3-kinase catalytic subunit gamma isoform (Homo sapiens, UniProt P48736); assay: Inhibition of PI3Kgamma (unknown origin) using PIP2 as substrate in presence of ATP incubated for 60 mins by ADP-glo based luminescence assay
Chain of Phosphatidylinositol 4,5-bisphosphate 3-kinase catalytic subunit gamma isoform (P48736 whole entry, canonical isoform): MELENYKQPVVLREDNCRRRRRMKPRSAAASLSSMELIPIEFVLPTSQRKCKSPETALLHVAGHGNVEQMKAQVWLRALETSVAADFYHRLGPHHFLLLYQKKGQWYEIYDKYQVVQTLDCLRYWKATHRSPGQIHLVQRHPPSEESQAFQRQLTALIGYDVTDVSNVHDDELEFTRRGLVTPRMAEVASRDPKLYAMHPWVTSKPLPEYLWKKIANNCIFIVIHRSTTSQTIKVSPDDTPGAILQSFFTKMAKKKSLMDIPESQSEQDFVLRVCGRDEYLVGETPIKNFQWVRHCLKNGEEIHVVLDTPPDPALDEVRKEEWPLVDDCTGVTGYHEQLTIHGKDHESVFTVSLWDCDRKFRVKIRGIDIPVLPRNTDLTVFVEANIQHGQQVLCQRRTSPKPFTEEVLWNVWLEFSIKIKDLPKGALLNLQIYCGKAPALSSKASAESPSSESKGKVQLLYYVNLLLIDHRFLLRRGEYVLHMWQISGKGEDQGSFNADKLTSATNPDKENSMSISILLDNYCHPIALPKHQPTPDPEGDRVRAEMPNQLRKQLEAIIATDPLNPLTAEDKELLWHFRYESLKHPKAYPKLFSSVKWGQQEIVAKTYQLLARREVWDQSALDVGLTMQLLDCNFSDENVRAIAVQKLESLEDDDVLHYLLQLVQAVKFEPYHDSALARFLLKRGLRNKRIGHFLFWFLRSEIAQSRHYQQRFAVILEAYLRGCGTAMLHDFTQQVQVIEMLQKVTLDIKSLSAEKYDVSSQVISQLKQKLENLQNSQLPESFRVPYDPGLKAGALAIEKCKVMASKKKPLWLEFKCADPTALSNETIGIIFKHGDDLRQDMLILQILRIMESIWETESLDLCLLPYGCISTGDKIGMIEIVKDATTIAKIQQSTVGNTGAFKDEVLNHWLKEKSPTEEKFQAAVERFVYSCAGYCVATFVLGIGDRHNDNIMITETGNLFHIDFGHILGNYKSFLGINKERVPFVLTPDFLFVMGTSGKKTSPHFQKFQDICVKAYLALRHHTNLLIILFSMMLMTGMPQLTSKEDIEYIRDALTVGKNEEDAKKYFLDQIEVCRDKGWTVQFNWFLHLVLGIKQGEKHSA

[5] = molecular target: T1, Phosphatidylinositol 4,5-bisphosphate 3-kinase catalytic subunit delta isoform (Homo sapiens, UniProt O00329); assay: Inhibition of PI3Kdelta (unknown origin) using PIP2 as substrate in presence of ATP incubated for 60 mins by ADP-glo based luminescence assay
T1 sequence (O00329 whole entry): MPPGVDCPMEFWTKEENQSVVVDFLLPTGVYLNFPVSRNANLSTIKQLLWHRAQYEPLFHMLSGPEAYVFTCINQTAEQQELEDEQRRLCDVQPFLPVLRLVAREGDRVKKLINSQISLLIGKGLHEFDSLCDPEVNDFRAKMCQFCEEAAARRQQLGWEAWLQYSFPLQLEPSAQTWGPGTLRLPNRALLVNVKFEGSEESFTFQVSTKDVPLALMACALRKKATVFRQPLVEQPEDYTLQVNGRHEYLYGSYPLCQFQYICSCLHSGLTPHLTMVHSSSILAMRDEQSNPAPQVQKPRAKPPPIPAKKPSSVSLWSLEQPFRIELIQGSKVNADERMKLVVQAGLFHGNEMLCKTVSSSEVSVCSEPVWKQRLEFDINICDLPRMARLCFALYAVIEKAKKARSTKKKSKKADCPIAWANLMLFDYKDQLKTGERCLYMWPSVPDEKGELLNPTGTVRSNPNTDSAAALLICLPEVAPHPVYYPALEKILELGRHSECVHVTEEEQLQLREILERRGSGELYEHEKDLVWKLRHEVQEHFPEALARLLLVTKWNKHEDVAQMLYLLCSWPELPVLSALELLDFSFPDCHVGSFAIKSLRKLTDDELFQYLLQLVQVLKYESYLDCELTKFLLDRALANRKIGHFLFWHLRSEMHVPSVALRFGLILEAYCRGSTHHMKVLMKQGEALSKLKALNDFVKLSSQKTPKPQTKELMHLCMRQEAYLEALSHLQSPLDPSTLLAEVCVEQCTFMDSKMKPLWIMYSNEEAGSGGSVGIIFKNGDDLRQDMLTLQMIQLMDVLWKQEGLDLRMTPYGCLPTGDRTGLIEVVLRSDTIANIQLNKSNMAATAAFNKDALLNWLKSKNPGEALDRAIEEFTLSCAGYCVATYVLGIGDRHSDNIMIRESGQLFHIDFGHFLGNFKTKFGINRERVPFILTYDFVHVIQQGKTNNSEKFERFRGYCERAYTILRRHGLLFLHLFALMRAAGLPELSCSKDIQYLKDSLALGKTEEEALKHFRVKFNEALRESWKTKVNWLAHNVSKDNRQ

MDA-MB-231 = assay: Antiproliferative activity against human MDA-MB-231 cells assessed as reduction in cell viability incubated for 48 hrs by MTT assay; assay type: functional, cell-based; conditions: MDA-MB-231, 48 h
HeLa = assay: Antiproliferative activity against human HeLa cells assessed as reduction in cell viability incubated for 48 hrs by MTT assay; assay type: functional, cell-based
CNE-2 = assay: Antiproliferative activity against human CNE-2 cells assessed as reduction in cell viability incubated for 48 hrs by MTT assay; assay type: functional, cell-based; conditions: CNE-2, 48 h
HCT-116 [6] = assay: Antiproliferative activity against human HCT-116 cells assessed as reduction in cell viability incubated for 48 hrs by MTT assay; assay type: functional, cell-based; conditions: HCT-116, 48 h
HepG2 = assay: Antiproliferative activity against human HepG2 cells assessed as reduction in cell viability incubated for 48 hrs by MTT assay; assay type: functional, cell-based; conditions: HepG2, 48 h
A-431 = assay: Antiproliferative activity against human A431 cells harboring wild type EGFR mutant assessed as reduction in cell viability incubated for 72 hrs by celltiter-glo assay; assay type: functional, cell-based; conditions: A-431, 72 h
NCI-H1975 = assay: Antiproliferative activity against human NCI-H1975 cells harboring EGFR L858R/T790M double mutant assessed as reduction in cell viability incubated for 72 hrs by celltiter-glo assay; assay type: functional, cell-based; conditions: NCI-H1975, 72 h
BaF3 = assay: Antiproliferative activity against mouse BaF3 cells harboring EGFR L858R/T790M/C797S mutant assessed as reduction in cell viability incubated for 72 hrs by celltiter-glo assay; assay type: toxicity, cell-based; conditions: BaF3, 72 h
HCT-116 [7] = assay: Inhibition of AKT phosphorylation at S473 residue in human HCT-116 cells at 10 uM after 24 hrs by Western blot analysis; assay type: cell-based
[8] = Metabolic stability in Sprague-Dawley rat liver microsome; assay type: ADME; conditions: microsomes
[9] = AUC (0 to 72 hrs) in Sprague-Dawley rat at 20 mg/kg, iv by LC-MS/MS analysis; assay type: ADME, organism-based; design: time < 72 hr, route intravenous, dose 20 mg/kg; conditions: in vivo
[10] = AUC (0 to infinity) in Sprague-Dawley rat at 20 mg/kg, iv by LC-MS/MS analysis; assay type: ADME, organism-based; design: route intravenous, time infinity, dose 20 mg/kg; conditions: in vivo
[11] = MRT in Sprague-Dawley rat at 20 mg/kg, iv by LC-MS/MS analysis; assay type: ADME, organism-based; conditions: in vivo
[12] = Half life in Sprague-Dawley rat at 20 mg/kg, iv by LC-MS/MS analysis; assay type: ADME, organism-based; conditions: in vivo
[13] = Tmax in Sprague-Dawley rat at 20 mg/kg, iv by LC-MS/MS analysis; assay type: ADME, organism-based; conditions: in vivo
[14] = Volume of distribution at steady state in Sprague-Dawley rat at 20 mg/kg, iv by LC-MS/MS analysis; assay type: ADME, organism-based; conditions: in vivo
Cytochrome P450 1A2 = Cytochrome P450 1A2 (Homo sapiens, UniProt P05177); assay: Inhibition of CYP1A2 (unknown origin); assay type: ADME
Chain of Cytochrome P450 1A2 (P05177 whole entry): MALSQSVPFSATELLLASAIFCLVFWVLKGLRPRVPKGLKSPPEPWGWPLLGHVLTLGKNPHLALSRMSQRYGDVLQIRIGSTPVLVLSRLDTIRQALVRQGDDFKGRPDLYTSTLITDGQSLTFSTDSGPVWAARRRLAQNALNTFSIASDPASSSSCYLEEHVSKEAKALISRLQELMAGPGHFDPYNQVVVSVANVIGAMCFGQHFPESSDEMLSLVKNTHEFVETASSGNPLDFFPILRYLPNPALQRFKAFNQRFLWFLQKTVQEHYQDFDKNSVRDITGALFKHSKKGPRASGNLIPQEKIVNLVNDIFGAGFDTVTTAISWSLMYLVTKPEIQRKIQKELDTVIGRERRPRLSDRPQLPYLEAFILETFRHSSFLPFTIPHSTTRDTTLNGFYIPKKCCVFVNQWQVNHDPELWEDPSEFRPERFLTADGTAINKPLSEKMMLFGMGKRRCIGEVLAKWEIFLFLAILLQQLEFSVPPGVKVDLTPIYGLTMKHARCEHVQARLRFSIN

Cytochrome P450 2C9 = Cytochrome P450 2C9 (Homo sapiens, UniProt P11712); assay: Inhibition of CYP2C9 (unknown origin); assay type: ADME
Chain of Cytochrome P450 2C9 (P11712 whole entry): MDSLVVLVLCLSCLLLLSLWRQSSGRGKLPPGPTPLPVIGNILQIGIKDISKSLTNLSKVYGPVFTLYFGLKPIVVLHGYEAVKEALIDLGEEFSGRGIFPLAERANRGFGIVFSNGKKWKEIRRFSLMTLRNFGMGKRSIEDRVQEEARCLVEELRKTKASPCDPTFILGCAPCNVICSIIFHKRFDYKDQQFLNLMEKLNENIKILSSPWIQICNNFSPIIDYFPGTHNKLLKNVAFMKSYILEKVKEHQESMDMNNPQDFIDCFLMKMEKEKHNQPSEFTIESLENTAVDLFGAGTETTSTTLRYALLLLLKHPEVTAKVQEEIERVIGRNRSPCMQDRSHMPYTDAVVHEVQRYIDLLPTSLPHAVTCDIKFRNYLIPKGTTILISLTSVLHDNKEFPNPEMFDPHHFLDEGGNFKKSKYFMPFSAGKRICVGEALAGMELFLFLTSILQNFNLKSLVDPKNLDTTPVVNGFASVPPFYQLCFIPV

Cytochrome P450 2C19 = Cytochrome P450 2C19 (Homo sapiens, UniProt P33261); assay: Inhibition of CYP2C19 (unknown origin); assay type: ADME
Cytochrome P450 2D6 = Cytochrome P450 2D6 (Homo sapiens, UniProt P10635); assay: Inhibition of CYP2D6 (unknown origin); assay type: ADME
Chain of Cytochrome P450 2D6 (P10635 whole entry): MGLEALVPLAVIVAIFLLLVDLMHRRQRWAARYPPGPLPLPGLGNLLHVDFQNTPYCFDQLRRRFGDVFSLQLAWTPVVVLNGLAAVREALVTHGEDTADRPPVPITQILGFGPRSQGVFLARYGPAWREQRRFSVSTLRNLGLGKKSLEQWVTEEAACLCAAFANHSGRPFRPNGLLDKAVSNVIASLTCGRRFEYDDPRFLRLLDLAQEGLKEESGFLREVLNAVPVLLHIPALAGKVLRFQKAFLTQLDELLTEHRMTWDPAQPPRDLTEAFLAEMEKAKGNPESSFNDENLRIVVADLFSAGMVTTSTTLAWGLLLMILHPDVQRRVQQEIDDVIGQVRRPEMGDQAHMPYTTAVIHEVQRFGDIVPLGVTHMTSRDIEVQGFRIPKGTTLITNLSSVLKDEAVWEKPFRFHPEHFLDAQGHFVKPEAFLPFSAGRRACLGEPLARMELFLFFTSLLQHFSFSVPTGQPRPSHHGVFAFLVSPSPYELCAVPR

HCT-116 [15] = assay: Antitumor activity against human HCT-116 cells xenografted in BALB/c nude mouse assessed as tumor size at 20 mg/kg, iv administered for 19 days (reference value: 1264.1+/-95.7 mm3); assay type: functional; conditions: time 19 day
HCT-116 [16] = assay: Antitumor activity against human HCT-116 cells xenografted in BALB/c nude mouse assessed as tumor growth inhibition at 20 mg/kg, iv administered for 19 days; assay type: functional; conditions: HCT-116, iv, 456 h, time 19 day, read-out: TGI
Spleen = assay: Toxicity in BALB/c mouse assessed as effect on spleen by H and E staining based histological analysis; assay type: tissue-based; conditions: in vivo
Heart = assay: Toxicity in BALB/c mouse assessed as effect on heart by H and E staining based histological analysis; assay type: tissue-based; conditions: in vivo
Lung = assay: Toxicity in BALB/c mouse assessed as effect on lungs by H and E staining based histological analysis; assay type: tissue-based; conditions: in vivo
Kidney = assay: Toxicity in BALB/c mouse assessed as effect on kidney by H and E staining based histological analysis; assay type: tissue-based; conditions: in vivo
Liver = assay: Toxicity in BALB/c mouse assessed as effect on liver by H and E staining based histological analysis; assay type: tissue-based; conditions: in vivo
Mus musculus = assay: Hyperglycemic activity in ICR mouse model assessed as effect on blood glucose level at 20 mg/kg, iv by glucometer; assay type: toxicity, organism-based; conditions: in vivo

Compound: C[C@@H](NC(=O)c1ccc(NC(=O)Nc2ccc(-c3nc(N4CCOCC4)nc(N4CCOCC4)n3)cc2)cc1)C(N)=O
- IC50 [1]: 0.9 nM
- IC50 [2]: 2.1 nM
- IC50 [3]: 5.1 nM
- IC50 [4]: 28 nM
- IC50 [5]: 25 nM
- IC50 (MDA-MB-231): 0.94 µM
- IC50 (HeLa): 1.9 µM
- IC50 (CNE-2): 12.6 µM
- IC50 (HCT-116 [6]): 3.66 µM
- IC50 (HepG2): 460 nM
- IC50 (A-431): 1.16 µM
- IC50 (NCI-H1975): 3.36 µM
- IC50 (BaF3): 547 nM

Compound: NC(=O)[C@@H]1CC(O)CN1C(=O)c1ccc(NC(=O)Nc2ccc(-c3nc(N4CCOCC4)nc(N4CCOCC4)n3)cc2)cc1 (stereo partly specified)
- IC50 [1]: 5.5 nM
- IC50 [2]: 2.2 nM
- IC50 [3]: 11.9 nM
- IC50 [4]: 98.8 nM
- IC50 [5]: 16.1 nM
- IC50 (MDA-MB-231): 39.1 µM
- IC50 (HeLa): 13.5 µM
- IC50 (CNE-2): 5.42 µM
- IC50 (HCT-116 [6]): 4.81 µM
- IC50 (HepG2): 3190 nM
- IC50 (A-431): 6.38 µM
- IC50 (NCI-H1975): 5.45 µM
- IC50 (BaF3): 2690 nM

Compound: CN(C)C1CCN(C(=O)c2ccc(NC(=O)Nc3ccc(-c4nc(N5CCOCC5)nc(N5CCOCC5)n4)cc3)cc2)CC1 [GEDATOLISIB]
- inhibition (HCT-116 [7]): Active
- Stability [8]: Stable
- AUC(0-t) at 72 h [9]: 41800 ng·h/mL
- AUC(0-inf) [10]: 42200 ng·h/mL
- MRT [11]: 9.1 h
- half-life [12]: 900 min
- Tmax [13]: 1.8 min
- Vdss [14]: 10.3 L/kg
- IC50 (Cytochrome P450 1A2): > 50 µM
- IC50 (Cytochrome P450 2C9): > 50 µM
- IC50 (Cytochrome P450 2C19): > 50 µM
- IC50 (Cytochrome P450 2D6): > 50 µM
- Activity (HCT-116 [15]): 800.3 mm3
- inhibition in vivo at 20 mg/kg (HCT-116 [16]): 41.2%
- Activity (Spleen): Non-Toxic
- Activity (Heart): Non-Toxic
- Activity (Lung): Non-Toxic
- Activity (Kidney): Non-Toxic
- Activity (Liver): Non-Toxic
- Activity (Mus musculus): Toxic
